Measured values reported in patent publication US10239869B2, “Sulfonamide compounds as voltage-gated sodium channel modulators” (LUPIN LIMITED, priority 2015, dated 2019).
Read-outs that look alike come from different tables or passages of the source.

Assays:
Nav 1.5 = Nav 1.5 (Homo sapiens (Human), UniProt Q14524); assay: Inhibition of sodium channels, Red Membrane Potential Dye FLIPR assay, veratridine depolarization; assay type: cell-based; details: HEK-293 cells overexpressing the channel; for inhibition at 10 µM: HEK-293 cells overexpressing Nav 1.5
Sequence of Nav 1.5 (Q14524 whole entry): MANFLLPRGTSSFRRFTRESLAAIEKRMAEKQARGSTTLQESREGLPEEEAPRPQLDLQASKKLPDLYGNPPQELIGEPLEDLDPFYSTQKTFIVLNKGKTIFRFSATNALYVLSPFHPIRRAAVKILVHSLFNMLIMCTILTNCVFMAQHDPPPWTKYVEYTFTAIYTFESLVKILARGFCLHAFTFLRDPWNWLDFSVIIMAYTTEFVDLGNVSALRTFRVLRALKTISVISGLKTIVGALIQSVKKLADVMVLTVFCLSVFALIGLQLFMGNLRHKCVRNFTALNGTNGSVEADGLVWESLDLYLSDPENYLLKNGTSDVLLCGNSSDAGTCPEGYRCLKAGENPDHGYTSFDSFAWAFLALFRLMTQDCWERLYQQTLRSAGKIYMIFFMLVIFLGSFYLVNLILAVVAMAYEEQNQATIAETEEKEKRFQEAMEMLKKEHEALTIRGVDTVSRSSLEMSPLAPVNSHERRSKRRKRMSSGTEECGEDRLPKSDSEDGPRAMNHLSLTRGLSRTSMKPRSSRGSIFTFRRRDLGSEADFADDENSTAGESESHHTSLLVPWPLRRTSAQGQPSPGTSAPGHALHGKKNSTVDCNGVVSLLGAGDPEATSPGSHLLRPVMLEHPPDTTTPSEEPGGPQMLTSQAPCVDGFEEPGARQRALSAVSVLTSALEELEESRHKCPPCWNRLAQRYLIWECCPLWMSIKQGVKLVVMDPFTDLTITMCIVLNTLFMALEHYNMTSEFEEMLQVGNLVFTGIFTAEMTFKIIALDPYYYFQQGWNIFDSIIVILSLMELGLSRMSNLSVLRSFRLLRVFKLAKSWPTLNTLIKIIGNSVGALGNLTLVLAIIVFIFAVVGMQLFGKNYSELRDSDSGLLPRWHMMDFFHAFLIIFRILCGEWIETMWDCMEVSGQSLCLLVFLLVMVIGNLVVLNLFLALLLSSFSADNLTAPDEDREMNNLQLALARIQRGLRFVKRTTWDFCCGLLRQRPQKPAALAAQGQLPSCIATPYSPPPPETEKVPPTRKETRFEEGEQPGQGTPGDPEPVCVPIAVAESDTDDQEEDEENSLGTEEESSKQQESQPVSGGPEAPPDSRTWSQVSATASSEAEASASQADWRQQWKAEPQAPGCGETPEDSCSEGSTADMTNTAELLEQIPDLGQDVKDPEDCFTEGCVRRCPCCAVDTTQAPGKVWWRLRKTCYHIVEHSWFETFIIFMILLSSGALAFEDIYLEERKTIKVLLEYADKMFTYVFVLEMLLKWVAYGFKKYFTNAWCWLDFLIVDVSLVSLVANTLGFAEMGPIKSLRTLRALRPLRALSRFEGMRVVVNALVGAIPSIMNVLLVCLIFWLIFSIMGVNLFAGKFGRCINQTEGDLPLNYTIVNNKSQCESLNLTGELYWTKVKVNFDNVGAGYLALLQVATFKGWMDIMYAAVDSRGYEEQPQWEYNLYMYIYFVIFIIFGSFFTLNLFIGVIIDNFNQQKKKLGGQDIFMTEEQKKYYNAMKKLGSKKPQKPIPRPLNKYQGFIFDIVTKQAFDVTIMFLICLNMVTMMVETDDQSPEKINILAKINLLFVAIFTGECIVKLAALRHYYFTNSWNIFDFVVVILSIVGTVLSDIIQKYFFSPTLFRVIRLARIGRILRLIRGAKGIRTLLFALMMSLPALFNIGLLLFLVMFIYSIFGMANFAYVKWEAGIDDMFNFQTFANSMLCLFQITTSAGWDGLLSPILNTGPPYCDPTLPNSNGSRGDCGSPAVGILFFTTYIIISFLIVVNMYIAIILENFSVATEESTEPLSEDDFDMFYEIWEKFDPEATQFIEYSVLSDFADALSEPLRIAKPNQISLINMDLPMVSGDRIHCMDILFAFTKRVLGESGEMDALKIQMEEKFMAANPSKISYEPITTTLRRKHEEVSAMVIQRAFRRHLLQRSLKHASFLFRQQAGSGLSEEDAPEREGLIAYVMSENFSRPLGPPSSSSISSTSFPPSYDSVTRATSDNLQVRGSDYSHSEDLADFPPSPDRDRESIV

Nav 1.7 = Nav 1.7 (Homo sapiens (Human), UniProt Q15858); assay: as above; assay type: cell-based; details: HEK-293 cells overexpressing the channel; for IC50: read-out: Nav1.7 IC50
Sequence of Nav 1.7 (Q15858 whole entry): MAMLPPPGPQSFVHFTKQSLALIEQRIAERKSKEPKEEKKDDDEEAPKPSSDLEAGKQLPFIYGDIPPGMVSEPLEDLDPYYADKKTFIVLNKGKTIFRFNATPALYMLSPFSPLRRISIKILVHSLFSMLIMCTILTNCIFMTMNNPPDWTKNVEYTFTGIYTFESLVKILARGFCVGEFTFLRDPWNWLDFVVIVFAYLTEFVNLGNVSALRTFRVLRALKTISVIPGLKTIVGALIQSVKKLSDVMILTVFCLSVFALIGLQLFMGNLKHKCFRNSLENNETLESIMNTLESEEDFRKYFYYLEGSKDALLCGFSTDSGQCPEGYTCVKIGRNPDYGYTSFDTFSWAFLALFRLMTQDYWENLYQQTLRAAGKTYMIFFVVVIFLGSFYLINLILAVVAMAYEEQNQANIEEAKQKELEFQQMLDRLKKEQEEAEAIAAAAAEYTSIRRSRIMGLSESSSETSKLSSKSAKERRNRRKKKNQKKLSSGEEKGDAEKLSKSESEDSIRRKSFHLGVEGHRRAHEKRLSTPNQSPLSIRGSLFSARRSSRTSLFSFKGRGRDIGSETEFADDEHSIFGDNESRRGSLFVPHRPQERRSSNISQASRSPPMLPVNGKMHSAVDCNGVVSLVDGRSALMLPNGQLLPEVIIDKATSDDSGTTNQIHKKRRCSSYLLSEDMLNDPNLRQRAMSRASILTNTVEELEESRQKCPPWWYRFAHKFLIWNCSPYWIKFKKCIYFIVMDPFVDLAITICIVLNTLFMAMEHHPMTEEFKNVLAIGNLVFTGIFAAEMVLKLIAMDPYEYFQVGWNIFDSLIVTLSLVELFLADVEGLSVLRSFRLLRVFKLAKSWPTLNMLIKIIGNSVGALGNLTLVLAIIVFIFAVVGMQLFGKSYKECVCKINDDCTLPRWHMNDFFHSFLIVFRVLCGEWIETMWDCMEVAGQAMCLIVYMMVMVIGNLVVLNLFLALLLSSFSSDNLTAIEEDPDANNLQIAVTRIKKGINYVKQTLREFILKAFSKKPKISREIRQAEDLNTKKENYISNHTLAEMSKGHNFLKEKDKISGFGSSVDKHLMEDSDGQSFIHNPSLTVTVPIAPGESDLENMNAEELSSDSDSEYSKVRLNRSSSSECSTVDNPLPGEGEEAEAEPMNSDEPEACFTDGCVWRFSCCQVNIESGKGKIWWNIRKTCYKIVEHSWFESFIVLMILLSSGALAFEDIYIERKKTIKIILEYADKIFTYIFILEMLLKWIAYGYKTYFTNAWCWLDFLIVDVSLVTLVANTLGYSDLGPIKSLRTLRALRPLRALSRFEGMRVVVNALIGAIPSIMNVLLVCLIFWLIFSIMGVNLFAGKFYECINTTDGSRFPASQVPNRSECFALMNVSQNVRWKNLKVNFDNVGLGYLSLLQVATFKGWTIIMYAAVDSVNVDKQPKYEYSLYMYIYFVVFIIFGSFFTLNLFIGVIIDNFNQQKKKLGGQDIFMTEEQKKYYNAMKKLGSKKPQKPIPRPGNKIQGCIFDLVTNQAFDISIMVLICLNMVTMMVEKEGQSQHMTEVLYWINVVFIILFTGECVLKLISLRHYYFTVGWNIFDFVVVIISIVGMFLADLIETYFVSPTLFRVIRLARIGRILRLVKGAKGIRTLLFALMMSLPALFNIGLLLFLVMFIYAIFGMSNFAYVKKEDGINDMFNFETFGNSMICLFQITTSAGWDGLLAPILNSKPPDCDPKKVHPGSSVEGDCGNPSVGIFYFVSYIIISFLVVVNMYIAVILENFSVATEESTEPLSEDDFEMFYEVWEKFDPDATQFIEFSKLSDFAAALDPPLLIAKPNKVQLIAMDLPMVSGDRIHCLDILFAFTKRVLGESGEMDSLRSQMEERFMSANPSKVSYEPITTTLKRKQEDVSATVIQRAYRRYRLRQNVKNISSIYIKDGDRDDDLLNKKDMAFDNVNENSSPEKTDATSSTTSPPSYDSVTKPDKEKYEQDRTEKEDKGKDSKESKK

[1] = read-out: Nav1.5 IC50 (bound given in μM)

| Compound | IC50 (Nav 1.7) | IC50 (Nav 1.5; [1]) | also measured |
| --- | --- | --- | --- |
| O=S(=O)(Nc1ncc(F)cn1)c1ccc2c(c1)OCC[C@@H]2c1ccc(C(F)(F)F)cc1O[C@H]1CCOC1 (racemic) [Example-182, (S/R)—N-(5-fluoropyrimidin-2-yl)-4-(2-(((S)-tetrahydrofuran-3-yl)oxy)-4-(trifluoromethyl)phenyl)chroman-7-sulfonamide] | 0.055 µM |  | inhibition at 10 µM (Nav 1.5): 30% |
| CS(=O)(=O)CCc1cc(C(F)(F)F)ccc1[C@@H]1CCOc2cc(S(=O)(=O)Nc3cccc(F)n3)ccc21 [Example 81, (S&R)—N-(6-Fluoropyridin-2-yl)-4-(2-(2-(methylsulfonyl)ethyl)-4-(trifluoromethyl)phenyl)chroman-7-sulfonamide] | 0.993 µM |  | Nav1.5 % inhibition @ 10 μM (Nav 1.5): 34% |
| O=S(=O)(Nc1cccnn1)c1ccc2c(c1)OCC[C@@H]2c1ccc(C(F)(F)F)cc1CCF (racemic) [Example 156, (R/S)-4-(2-(2-fluoroethyl)-4-(trifluoromethyl)phenyl)-N-(pyridazin-3-yl)chroman-7-sulfonamide] | 0.042 µM |  | inhibition at 10 µM (Nav 1.5): 36% |
| O=S(=O)(Nc1ncccn1)c1ccc2c(c1)OCC[C@H]2c1ccc(C(F)(F)F)cc1OC1CCOCC1 [Example-168, (R&S)—N-(pyrimidin-2-yl)-4-(2-((tetrahydro-2H-pyran-4-yl)oxy)-4-(trifluoromethyl)phenyl)chroman-7-sulfonamide] | 3.9 µM | > 10 µM |  |
| O=S(=O)(Nc1ccncn1)c1ccc2c(c1)OCC[C@@H]2c1ccc(C(F)(F)F)cc1CCCCF (racemic) [Example 165, (R/S)-4-(2-(4-fluorobutyl)-4-(trifluoromethyl)phenyl)-N-(pyrimidin-4-yl)chroman-7-sulfonamide] | 0.005 µM |  | IC50 (Nav 1.5; read-out: Nav1.5 IC50): 0.303 µM |
| O=S(=O)(Nc1cccnn1)c1ccc2c(c1)OCC[C@@H]2c1ccc(C(F)(F)F)cc1N1CCOCC1 (racemic) [Example 122, (R/S)-4-(2-morpholino-4-(trifluoromethyl)phenyl)-N-(pyridazin-3-yl)chroman-7-sulfonamide] | 0.038 µM |  | inhibition at 10 µM (Nav 1.5): 54% |
| O=S(=O)(Nc1ncccn1)c1ccc2c(c1)OCCC2c1ccc(C(F)(F)F)cc1O[C@@H]1CCOC1 (stereo partly drawn) [Example-185, (S&R)—N-(pyrimidin-2-yl)-4-(2-(((R)-tetrahydrofuran-3-yl)oxy)-4-(trifluoromethyl)phenyl)chroman-7-sulfonamide] | 1.02 µM | > 10 µM |  |
| O=S(=O)(Nc1ncccn1)c1ccc2c(c1)OCC[C@@H]2c1ccc(C(F)(F)F)cc1OCCCF [Example-221, (S&R)-4-(2-(3-fluoropropoxy)-4-(trifluoromethyl)phenyl)-N-(pyrimidin-2-yl)chroman-7-sulfonamide] | 0.042 µM |  | IC50 (Nav 1.5; read-out: Nav1.5 IC50): 1.47 µM |
| O=S(=O)(Nc1cccnn1)c1ccc2c(c1)OCC[C@@H]2c1ccc(C(F)(F)F)cc1O[C@H]1CCOC1 (racemic) [Example-184, (S/R)—N-(pyridazin-3-yl)-4-(2-(((S)-tetrahydrofuran-3-yl)oxy)-4-(trifluoromethyl)phenyl)chroman-7-sulfonamide] | 0.17 µM |  | inhibition at 10 µM (Nav 1.5): 67% |
| O=C1CCCN1c1cc(C(F)(F)F)ccc1[C@@H]1CCOc2cc(S(=O)(=O)Nc3ncc(F)cn3)ccc21 [Example 113, (S&R)—N-(5-fluoropyrimidin-2-yl)-4-(2-(2-oxopyrrolidin-1-yl)-4-(trifluoromethyl)phenyl)chroman-7-sulfonamide] |  | > 10 µM | Nav1.7 inhibition @ 10 μM (Nav 1.7): 65% |
| COCCCCc1cc(C(F)(F)F)ccc1[C@H]1CCOc2cc(S(=O)(=O)Nc3ncc(F)cn3)ccc21 (racemic) [Example 148, (R/S)—N-(5-fluoropyrimidin-2-yl)-4-(2-(4-methoxybutyl)-4-(trifluoromethyl)phenyl)chroman-7-sulfonamide] | 0.172 µM | > 10 µM |  |
| COc1cc(C(F)(F)F)ccc1[C@@H]1CCOc2cc(S(=O)(=O)Nc3cccc(F)n3)ccc21 [Example-228, (S&R)—N-(6-fluoropyridin-2-yl)-4-(2-methoxy-4-(trifluoromethyl)phenyl)chroman-7-sulfonamide] |  | > 10 µM | Nav1.7 inhibition @ 10 μM (Nav 1.7): 55% |
| O=S1(=O)CCN(c2cc(C(F)(F)F)ccc2[C@H]2CCOc3cc(S(=O)(=O)Nc4cccnn4)ccc32)CC1 (racemic) [Example-236, (R/S)-4-(2-(1,1-dioxidothiomorpholino)-4-(trifluoromethyl)phenyl)-N-(pyridazin-3-yl)chroman-7-sulfonamide] | 0.113 µM | > 10 µM |  |
| CCCc1cc(C(F)(F)F)ccc1[C@H]1CCOc2cc(S(=O)(=O)Nc3ncccn3)ccc21 [Example-239, (S&R)-4-(2-propyl-4-(trifluoromethyl)phenyl)-N-(pyrimidin-2-yl)chroman-7-sulfonamide] | 0.124 µM |  | Nav1.5 % inhibition @ 10 μM (Nav 1.5): 62% |
| O=S(=O)(Nc1ncc(F)cn1)c1ccc2c(c1)OCC[C@@H]2c1ccc(C(F)(F)F)cc1OC1CCOCC1 [Example-171, (R&S)—N-(5-fluoropyrimidin-2-yl)-4-(2-((tetrahydro-2H-pyran-4-yl)oxy)-4-(trifluoromethyl)phenyl)chroman-7-sulfonamide] | 0.125 µM |  | Nav1.5 % inhibition @ 10 μM (Nav 1.5): 53% |
| O=C(O)c1ccc(-c2cc(C(F)(F)F)ccc2[C@@H]2CCOc3cc(S(=O)(=O)Nc4ncccn4)ccc32)cc1 [Example-187, (S&R)-2′-(7-(N-(pyrimidin-2-yl)sulfamoyl)chroman-4-yl)-5′-(trifluoromethyl)-[1,1′-biphenyl]-4-carboxylic acid] | 2.6 µM |  |  |
| O=S(=O)(Nc1cccc(F)n1)c1ccc2c(c1)OCC[C@H]2c1ccc(C(F)(F)F)cc1-n1ccnn1 [Example 59, (S&R)-4-(2-(1H-1,2,3-Triazol-1-yl)-4-(trifluoromethyl)phenyl)-N-(6-fluoropyridin-2-yl) chromane-7-sulfonamide] |  | > 10 µM |  |
| Cc1cccc(NS(=O)(=O)c2ccc3c(c2)OCC[C@@H]3c2ccc(C(F)(F)F)cc2-c2ccnn2C)n1 [Example 20, (S&R)-4-(2-(1-methyl-1H-pyrazol-5-yl)-4-(trifluoromethyl)phenyl)-N-(6-methylpyridin-2-yl)chroman-7-sulfonamide] | 0.245 µM |  |  |
| Cc1ccc(-c2cc(C(F)(F)F)ccc2[C@H]2CCOc3cc(S(=O)(=O)Nc4ncccn4)ccc32)cn1 [Example-202, (R)-4-(2-(6-methylpyridin-3-yl)-4-(trifluoromethyl)phenyl)-N-(pyrimidin-2-yl)chroman-7-sulfonamide] |  | > 10 µM |  |
| O=S(=O)(Nc1ncc(F)cn1)c1ccc2c(c1)OCC[C@@H]2c1ccc(C(F)(F)F)cc1-n1ccnn1 [Example 56, (S&R)-4-(2-(1H-1,2,3-Triazol-1-yl)-4-(trifluoromethyl)phenyl)-N-(5-fluoropyrimidin-2-yl) chromane-7-sulfonamide] |  | > 10 µM |  |
| O=S(=O)(Nc1ncc(F)cn1)c1ccc2c(c1)OCC[C@H]2c1ccc(C(F)(F)F)cc1-n1ccnn1 [Example 55, (S&R)-4-(2-(1H-1,2,3-Triazol-1-yl)-4-(trifluoromethyl)phenyl)-N-(5-fluoropyrimidin-2-yl) chromane-7-sulfonamide] |  | > 10 µM |  |
| O=S(=O)(Nc1cccc(F)n1)c1ccc2c(c1)OCC[C@H]2c1ccc(C(F)(F)F)cc1-c1ccc(F)cc1 [Example 49, (S&R)-4-(4′-Fluoro-5-(trifluoromethyl)-[, 1′-biphenyl]-2-yl)-N-(6-fluoropyridin-2-yl) chromane-7-sulfonamide] |  | > 10 µM |  |
